Test results taken from patent US10106577B2, “Agonists of neurotrophin receptors and their use as medicaments” (BIONURE FARMA, S.L., priority 2010, dated 2018).
“Also recorded” adds a separate entry of the source.

Key:
RN22 cells = assay: Survival assay in RN22 cells under CuSO4 oxidative stress (MTT); type: cell-based, rat; details: for cell viability of RN22 (in words): 1-10-50 ng/ml and 1-10 μg/ml, CuSO4 stress; for best working concentration for RN22 cell viability: tested 1-10-50 ng/ml and 1-10 μg/ml; for viability at 0.05 µg/mL: 50 ng/ml
Procedure: The rat schwannome cell line RN22 was cultured in Dulbecco's modified Eagle's medium (DMEM) with 10% FBS and 1% penicillin/streptomycin. The cell culture was maintained in 5% CO2 at 37° C.
RN22 were plated into 24-wells plates at the concentration of 30.000 cells/well in medium without serum. After 24 h, the test compounds G79, G80, and G81 were added at different concentrations (1-10-50 ng/ml and 1-10 μg/ml) and NGF was used as positive control of survival. The cells were so incubated for 2 hrs. Oxidative stress was induced with copper sulphate (CuSO4) at the final concentration of 150 μg/ml. After over-night incubation cell viability was determined by reading the absorbance after adding MTT (Sigma Aldrich).

PC12 cells [1] = assay: Synergistic activity assay (PC12 differentiation in combination with NGF); type: cell-based; details: 100 ng/ml in combination with NGF 100 ng/ml
Procedure: To evaluate if the small molecules G79, G80, and G81 interfere with the maximal activity of NGF or lead to additive effects, PC12 cells were plated into collagen-coated 24-wells plates with 2.5% FBS and treated after 72 h with the small chemicals (each one at 100 ng/ml) in combination with NGF at the concentration of 100 ng/ml. In the same experiment PC12 cells were treated with the small molecules or NGF alone, as controls. The number of differentiated cells was evaluated after three days of treatment. The cell count was done in three randomly selected fields with 100 cells.

PC12 cells [2] = assay: Secretagogue activity assay (PC12 differentiation with antibody anti-NGF); type: cell-based
Procedure: To assess if the tested compounds, G79, G80, and G81, act as secretagogues, inducing neurotrophic activity through the synthesis of NGF, PC12 cells were plated into collagen-coated 24-wells plates with only 2.5% FBS and after 72 hrs the cells were treated with the tested compounds (each one at 100 ng/ml) together with antibody anti-NGF (1 μg/ml, AbCam). After three days of treatment, the differentiation was evaluated. The cell count was done in three randomly selected fields with 100 cells.

SH-SY5Y cells [3] = assay: cells; type: cell-based, human; details: for protective effect against H2O2 oxidative stress (in words): H2O2 100 μM, 20 ng/ml to 50 μg/ml
Procedure: The cells were pre-treated for 3 hours with the test compounds at different concentrations (20 ng/ml, 100 ng/ml, 2 μg/ml, 20 μg/ml and 50 μg/ml) or BDNF (20 ng/ml) as a positive control. Then H2O2 (100 μM) was added and incubated for 24 hrs. The number of surviving cells was determined by MTT assay. […] In FIG. 5B, BDNF cell viability has been considered as the 100%. The H2O2 stress induced a decrease in the percentage of cell viability (no stress Ctr vs H2O2 stress=100±2% vs 95.9±0.5%). G79, compared to G80 and G81, is the one that exerted better protection, at the concentration of 20 ng/ml (BDNF vs G79=100±2.6 vs 107.4±5.8).

in vitro = details: rat (astrocytes)
SH-SY5Y cells [4] = assay: Parkinson's disease in vitro model (MPTP stress, MTT); type: cell-based, human; details: MPTP 100 μM, 24 hrs; pre-treated 3 hours; BDNF 20 ng/ml
Procedure: The human neuroblastoma cell line SH-SY5Y was maintained in culture with 50% Ham's F12 medium and 50% EMEM medium, supplemented with 10% FBS, […] L-glutamine and 1% penicillin/streptomycin. The cell culture was maintained in a humidified atmosphere of 95% air and CO2 at 37° C.
The SH-SY5Y cells after differentiation to neuronal phenotype with retinoic acid, were pre-treated for 3 hours with the test compounds at different concentrations (20 ng/ml, 100 ng/ml, 2 μg/ml, 20 μg/ml and 50 μg/ml) or BDNF (20 ng/ml) as a positive control. Then 1-methyl-4-phenyl-1,2,3,6-tetrahydropyridine (MPTP) (100 μM) was added and incubated for 24 hrs. The number of surviving cells was determined the day after by 3-(4,5-dimethylthiazol-2-yl)-2,5-diphenyltetrazolium bromide (MTT) assay.

NSC-34 cells = assay: In vitro model of ALS, serum deprivation of motoneuron-like cells (MTT); type: cell-based, mouse; details: for neuroprotection on motorneurons challenged with serum deprivation (in words): 20 ng/ml to 50 μg/ml
Procedure: Mouse motoneuron-like cells NCS-34 were cultured in DMEM (Gibco) supplemented with 10% heat inactivated FBS and 1% penicillin/streptomycin. The cell culture was maintained in a humidified atmosphere of 95% air and CO2 at 37° C.
The nutritional deprivation stress in motorneurons was conducted as described previously in Masahito T. et al., J. Neuropathol. Exp. Neurol. 65(8):816-825 (2006). To assess the effect of trophic stress condition on ALS, the presence of apoptosis was investigated using serum deprivation. NSC-34 cells were seeded in 24-well poly-lysinated plates at 30,000 cells/well and preincubated for 24 h in DMEM plus 10% FBS with various doses of G79, G80, and G81 (20 ng/ml, 100 ng/ml, 2 μg/ml, 20 μg/ml, 50 μg/ml), and G-CSF (2 μg/ml) or BDNF (20 ng/ml) which both were used as positive controls (Masahito T. et al., ibid; Elliot J. L., Neurobiology of Disease 6:310-320 (1999)). Then, the medium was removed and replaced with fresh DMEM without FBS. After 48 h, cell viability was assayed by MTT assay, as described previously.

PC12 cells [5] = assay: Receptor activation assay (PC12 differentiation with anti-TrkA antibody); type: cell-based
Procedure: The hypothesis that G79, G80, and G81 can act through the binding to the extracellular portion of TrkA (binding site) and activate the tyrosine kinase receptor was tested by treating the PC12 cells with the small chemicals in combination with the antibody anti-TrkA or the K252a, a tyrosine kinase inhibitor. For this purpose PC12 cells were plated into collagen-coated 24-wells plates with 2.5% FBS and after 72 hrs were incubated with the small molecules alone or in combination with anti-TrkA antibody (AbCam, 1:2000) or K252a. NGF (100 ng/ml) was used as control and added alone or in combination with anti-TrkA antibody or K252a. The number of differentiated cells was evaluated after three days of treatment. The cell count was done in three randomly selected fields with 100 cells.

[6] = 100 ng/ml together with antibody anti-NGF (1 μg/ml)
[7] = in combination with anti-TrkA antibody (1:2000)
[8] = Rattus norvegicus, RN 22, CuSO4 150 μg/ml, read-out: cell viability, as % relative to the no-stress control

Compound	cell viability of RN22 (in words) (RN22 cells)	viability at 0.01 µg/mL (RN22 cells; Rattus norvegicus, RN 22, 10 ng/ml, CuSO4 150 μg/ml, read-out: cell viability, as % relative to the no-stress control) [%]	best working concentration for RN22 cell viability (RN22 cells) [ng/mL]	number of differentiated cells (PC12 cells [1])	number of differentiated cells for each field (PC12 cells [2]; [6])	number of differentiated cells for each field (PC12 cells [2]; 100 ng/ml, treatment alone)	protective effect against H2O2 oxidative stress (in words) (SH-SY5Y cells [3])	viability at 0.02 µg/mL (SH-SY5Y cells [3]; Homo sapiens, SH-SY5Y, 24 h, read-out: cell viability, BDNF cell viability considered as the 100%) [%]	Papp (in vitro) [×10⁻⁶ cm/s]	protection of neuronal cells against MPTP (surviving cells, MTT) (SH-SY5Y cells [4])	neuroprotection on motorneurons challenged with serum deprivation (in words) (NSC-34 cells)	viability at 0.1 µg/mL (NSC-34 cells; Mus musculus, NSC-34, 100 ng/ml, serum deprivation 48 h, read-out: cell viability, percentage relative to the control without stress) [%]	concentration of the best neuroprotective effect (NSC-34 cells; serum deprivation) [ng/mL]	number of differentiated cells (PC12 cells [5]; [7])	number of differentiated cells (PC12 cells [5]; treatment alone)	viability at 0.05 µg/mL (RN22 cells; [8]) [%]
CC(C)CN(CC(=O)N(CCCN1CCCC1=O)CC(N)=O)C(=O)CNCCc1ccccc1F [Compound G79, [N-(2-(2′-Fluorophenyl)ethyl)glycyl]-[N-(2-methylpropyl)glycyl]-N-[3-(2′-oxopyrrolidinyl)propyl]glycinamide]	increased cell viability at all tested concentrations	98.1	10	11.3±2.6	18.8±4.9	11.5±2.8	protective effect	107 ± 5.8	4.1	Prevent Neuronal Death; also recorded: significant protection of neuronal cells	exerted neuroprotection	98.1 ± 6.14	100	19.6±8.1	11.5±2.8	
CC(C)CN(CC(=O)N(CCc1ccc(S(N)(=O)=O)cc1)CC(N)=O)C(=O)CNCCc1ccccc1F [Compound G80, [N-(2-(2′-Fluorophenyl)ethyl)glycyl]-[N-(2-methylpropyl)glycyl]-N-[2-(4′-sulfamoylphenyl)ethyl]glycinamide]	increased cell viability at all tested concentrations		50	13±5.9	14.1±1.8	15.1±6.3	protective effect		2.8	Prevent Neuronal Death	exerted neuroprotection			14.6±4.1	15.1±6.3	99.9
CC(C)CN(CC(=O)N(CCc1ccc(S(N)(=O)=O)cc1)CC(N)=O)C(=O)CNCCN1CCCC1 [Compound G81, [N-(2-(1-Pyrrolidinyl)ethyl)glycyl]-[N-(2-methylpropyl)glycyl]-N-[2-(4′-sulfamoylphenyl)ethyl]glycinamide]	increased cell viability at all tested concentrations		50	13.3±3.8	15.5±4.1	14.1±3.3	protective effect		2.1	Prevent Neuronal Death	exerted neuroprotection			16.5±5.9	14.1±3.3	102
